Data as given in patent US4550159A, “Anthracycline compounds” (Microbial Chemistry Research Foundation, priority 1982, dated 1985).
Values after ≈ are worked out from the molar mass of the structure shown.

Legend:
L1210 cells [1] = test: Cytotoxicity, growth of L1210 cells; format: cell-based; conditions: Mus musculus, read-out: ID50, growth
Description: (§1) The results are shown below.

L1210 cells [2] = test: Cytotoxicity, protein synthesis in L1210 cells; format: cell-based; conditions: Mus musculus; for IC50: read-out: ID50, protein synthesis
Description: as §1

L1210 cells [3] = test: Cytotoxicity, RNA synthesis in L1210 cells; format: cell-based; conditions: Mus musculus, read-out: ID50, RNA synthesis
Description: as §1

L1210 leukemia cells = test: Antitumor activity, increase of life span, L1210 leukemia cells in CDF1 mice; format: in vivo; conditions: intraperitoneal, 10 days
Method: To CDF1 mice were intraperitoneally transplanted 1×10^5 L1210 leukemia cells/mouse as a suspension. After the transplantation, each 0.25 ml of a solution containing the test compound was intraperitoneally injected for 10 days, beginning on the day of transplantation. […] The increase of life span (%) compared with the control group consisting of mice administered with physiological saline solution instead of the test compound was calculated from the following equation: [formula]

Solubility = format: physicochemical
S. aureus 209 P = test: Antimicrobial activity, MIC by agar dilution method; format: cell-based; conditions: Staphylococcus aureus
Description: (§2) The antimicrobial activity of ditrisarubicin according to the present invention was examined. It is expressed as minimum inhibitory concentration (MIC) determined by the agar dilution method.

S. aureus Smith = test: as above; format: cell-based; conditions: Staphylococcus aureus
Description: as §2

Pseu. aeruginosa A3 = test: as above; format: cell-based; conditions: Pseudomonas aeruginosa
Description: as §2

Prot. vulgaris OX19 = test: as above; format: cell-based; conditions: Proteus vulgaris
Description: as §2

K. pnuemoniae PCI 602 = test: as above; format: cell-based; conditions: K. pnuemoniae PCI 602, agar dilution method
Description: as §2

[4] = tested on: M. lysodeikticus IFO 3333; test: as above; format: cell-based; conditions: Micrococcus luteus, IFO3333; M. lysodeikticus IFO 3333, agar dilution method
Description: as §2

S. aureus MS9610 = test: as above; format: cell-based; conditions: Staphylococcus aureus
Description: as §2

S. aureus MS8710 = test: as above; format: cell-based; conditions: Staphylococcus aureus
Description: as §2

B. subtilis PCI 219 = test: as above; format: cell-based; conditions: Bacillus subtilis, PCI219; B. subtilis PCI 219, agar dilution method
Description: as §2

B. cereus ATCC 10702 = test: as above; format: cell-based; conditions: Bacillus cereus, ATCC10702; B. cereus ATCC 10702, agar dilution method
Description: as §2

Sal. typhi T-63 = test: as above; format: cell-based; conditions: Salmonella enterica; Sal. typhi T-63, agar dilution method
Description: as §2

E. coli NIHJ = test: as above; format: cell-based; conditions: Escherichia coli
Description: as §2

Serr. marcessens = test: as above; format: cell-based
Description: as §2

Coryn. bovis 1810 = test: as above; format: cell-based; conditions: Corynebacterium bovis; Coryn. bovis 1810, agar dilution method
Description: as §2

L1210 cells [5] = test: Cytotoxicity, DNA synthesis in L1210 cells; format: cell-based; conditions: Mus musculus, read-out: ID50, DNA synthesis
Description: as §1

SMILES | IC50 (L1210 cells [1]) [µg/mL] | IC50 (L1210 cells [3]) [µg/mL] | Increase of life span (L1210 leukemia cells; 0.016 mg/kg/day) [%] | Increase of life span (L1210 leukemia cells; 0.031 mg/kg/day) [%] | Increase of life span (L1210 leukemia cells; 0.063 mg/kg/day) [%] | Increase of life span (L1210 leukemia cells; 0.125 mg/kg/day) [%] | Increase of life span (L1210 leukemia cells; 0.25 mg/kg/day) [%] | Solubility in methanol, acetone, ethyl acetate, chloroform, acetonitrile and DMSO (Solubility) | Solubility in water, n-hexane and petroleum ether (Solubility) | MIC (S. aureus 209 P) [µg/mL] | MIC (S. aureus Smith) [µg/mL] | MIC (Pseu. aeruginosa A3) [µg/mL] | MIC (Prot. vulgaris OX19) [µg/mL] | MIC (K. pnuemoniae PCI 602) [µg/mL] | MIC [4] [µg/mL] | MIC (S. aureus MS9610) [µg/mL] | MIC (S. aureus MS8710) [µg/mL] | MIC (B. subtilis PCI 219) [µg/mL] | MIC (B. cereus ATCC 10702) [µg/mL] | MIC (Sal. typhi T-63) [µg/mL] | other results
CCC1(O)CC(OC2CC(N(C)C)C(OC3CC4OC5CC(=O)C(C)OC5OC4C(C)O3)C(C)O2)c2c(O)c3c(c(O)c2C1OC1CC(N(C)C)C(OC2CC(O)C(OC4CCC(=O)C(C)O4)C(C)O2)C(C)O1)C(=O)c1cccc(O)c1C3=O (stereo not drawn) [Ditrisarubicin A] | 0.0005 (≈ 0.000423 µM) | 0.023 (≈ 0.0194 µM) | 136 | 148 | 148 | 119 | 91 | soluble | sparingly soluble | < 0.2 | 0.39 (≈ 0.33 µM) | 12.5 (≈ 10.6 µM) | 50 (≈ 42.3 µM) | 50 (≈ 42.3 µM) | < 0.2 | 0.39 (≈ 0.33 µM) | < 0.2 | < 0.2 | 0.39 (≈ 0.33 µM) | 50 (≈ 42.3 µM) | IC50 (L1210 cells [2]): 8.5 µg/mL (≈ 7.18 µM); MIC (E. coli NIHJ): 50 µg/mL (≈ 42.3 µM); MIC (Serr. marcessens): 50 µg/mL (≈ 42.3 µM); MIC (Coryn. bovis 1810): 0.78 µg/mL (≈ 0.659 µM); IC50 (L1210 cells [5]): 0.31 µg/mL (≈ 0.262 µM)
CCC1(O)CC(OC2CC(N(C)C)C(OC3CC4OC5CC(=O)C(C)OC5OC4C(C)O3)C(C)O2)c2c(O)c3c(c(O)c2C1OC1CC(N(C)C)C(OC2CC4OC5CC(=O)C(C)OC5OC4C(C)O2)C(C)O1)C(=O)c1cccc(O)c1C3=O (stereo not drawn) [Ditrisarubicin B] | 0.0011 (≈ 0.000931 µM) | 0.029 (≈ 0.0245 µM) | 114 | 136 | 148 | 159 | 108 | soluble | sparingly soluble | < 0.2 | 0.78 (≈ 0.66 µM) | 25 (≈ 21.2 µM) | 50 (≈ 42.3 µM) | 50 (≈ 42.3 µM) | < 0.2 | 0.39 (≈ 0.33 µM) | 0.39 (≈ 0.33 µM) | 0.39 (≈ 0.33 µM) | 0.39 (≈ 0.33 µM) | > 50 | inhibition at 10 µg/mL (L1210 cells [2]; with 10 γ/ml): 23.3%; MIC (E. coli NIHJ): > 50 µg/mL; MIC (Serr. marcessens): 50 µg/mL (≈ 42.3 µM); MIC (Coryn. bovis 1810): < 0.2 µg/mL; IC50 (L1210 cells [5]): 0.29 µg/mL (≈ 0.245 µM)
CCC1(O)CC(OC2CC(N(C)C)C(OC3CC4OC5CC(=O)C(C)OC5OC4C(C)O3)C(C)O2)c2c(O)c3c(c(O)c2C1OC1CC(N(C)C)C(OC2CCC(OC4C=CC(=O)C(C)O4)C(C)O2)C(C)O1)C(=O)c1cccc(O)c1C3=O (stereo not drawn) [Ditrisarubicin C] | 0.0007 (≈ 0.000601 µM) | 0.014 (≈ 0.012 µM) | 142 | 182 | 142 | 148 | 114 | soluble | sparingly soluble | < 0.2 | 0.39 (≈ 0.335 µM) | 25 (≈ 21.5 µM) | 50 (≈ 42.9 µM) | > 50 | < 0.2 | < 0.2 | < 0.2 | 0.39 (≈ 0.335 µM) | 0.39 (≈ 0.335 µM) | > 50 | IC50 (L1210 cells [2]): 3.2 µg/mL (≈ 2.75 µM); MIC (E. coli NIHJ): > 50 µg/mL; MIC (Serr. marcessens): 50 µg/mL (≈ 42.9 µM); MIC (Coryn. bovis 1810): < 0.2 µg/mL; IC50 (L1210 cells [5]): 0.14 µg/mL (≈ 0.12 µM)
